IC50 data for ten compounds are collected here from patent US5032577A, “Peptidylaminodiols” (Abbott Laboratories, priority 1987, dated 1991).

As a reminder, the pIC50 is −log10 of the IC50, conventionally taken in molar units. A higher pIC50 goes with a low IC50.

Molecules are shown by their SMILES. pIC50: −log10 of the molar value. Where a name gives a salt, the structure may show the parent alone.

The first assay addresses T1, human renal renin (Homo sapiens, UniProt P00797).
T1 construct: human renal renin, free from acid proteolytic activity; from tissue
T1 sequence (P00797 67-406): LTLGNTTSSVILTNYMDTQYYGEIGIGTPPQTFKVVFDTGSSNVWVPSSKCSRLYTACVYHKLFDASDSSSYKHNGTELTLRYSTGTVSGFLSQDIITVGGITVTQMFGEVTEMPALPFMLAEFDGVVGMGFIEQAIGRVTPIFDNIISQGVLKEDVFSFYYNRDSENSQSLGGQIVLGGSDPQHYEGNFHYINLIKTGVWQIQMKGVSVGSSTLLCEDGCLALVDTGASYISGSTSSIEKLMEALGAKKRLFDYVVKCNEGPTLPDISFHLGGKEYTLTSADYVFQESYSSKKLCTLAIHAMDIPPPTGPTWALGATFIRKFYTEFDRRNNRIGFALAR
The assay can be described thus: Inhibition of human renal renin in vitro; angiotensin I formed measured by radioimmunoassay.
Conditions: not given
In kind it is biochemical.
`CC(C)C[C@H](O)[C@H](O)[C@H](CC1CCCCC1)NC(=O)[C@H](Cc1cnc[nH]1)NC(=O)[C@H](Cc1ccccc1)NC(=O)N1CCOCC1` [Example 118, [(4-Morpholinyl)carbonyl]-phe-His Amide of 2(S)-Amino-1-cyclohexyl-3(R),4(S)-dihydroxy-6-methylheptane]: the pIC50 is 9.30.
The same measure, in the same setting: the result for `COc1ccc(C[C@H](NC(=O)CCCCCN)C(=O)N[C@@H](Cc2c[nH]cn2)C(=O)N[C@@H](CC2CCCCC2)[C@@H](O)[C@@H](O)CC(C)C)cc1` [Example 173, 6-Aminohexanoyl-(4-methoxy)Phe-His Amide of (2S, 3R, 4S)-2-Amino-1-cyclohexyl-3,4-dihydroxy-6-methylheptane Diacetate Salt] reads 9.05; that for `CC(C)C[C@H](O)[C@H](O)[C@H](CC1CCCCC1)NC(=O)[C@H](Cc1c[nH]cn1)NC(=O)C(NC(=O)N1CCOCC1)C(C)(C)c1ccccc1` (stereo partly drawn) [Example 178, 2(R,S)-[[(4-Morpholinyl)carbonyl]amino]-3,3-dimethyl-3-phenylpropionyl-His Amide of 2(S)-Amino-l-cyclohexyl-3(R),4(S)-dihydroxy-6-methylheptane], 8.70; that for `COc1ccc(C[C@H](NC(=O)C2CCNCC2)C(=O)N[C@@H](Cc2c[nH]cn2)C(=O)N[C@@H](CC2CCCCC2)[C@@H](O)[C@@H](O)CC(C)C)cc1` [Example 179, H-Isonipecotyl-(4-OCH3)Phe-His Amide of 2(S)-Amino-1-cyclohexyl-3(R),4(S)-dihydroxy-6-methylheptane Diacetic Acid Salt], 9.00.
Turning to `CC(C)C[C@H](NC(=O)[C@H](Cc1ccccc1)NC(=O)CCCC(=O)O)C(=O)N[C@@H](CC1CCCCC1)[C@@H](O)[C@@H](O)CC(C)C` [Example 184, 4-Carboxybutyroyl-Phe-Leu Amide of 2(S)-Amino-l-cyclohexyl-3(R),4(S)-dihydroxy-6-methylheptane], the pIC50 is 9.23.
Still for that read-out and setting: the result for `CCOC(=O)[C@H](C)N[C@@H](Cc1ccccc1)C(=O)N[C@@H](Cc1c[nH]cn1)C(=O)N[C@@H](CC1CCCCC1)[C@@H](O)[C@@H](O)CC(C)C` [Example 185B, [l(S)-(Ethoxycarbonyl)-ethyl]-Phe-His Amide of 2(S)-Amino-1-cyclohexyl-3(R),4(S)-dihydroxy-6-methylheptane] reads 9.29.
Take `CC(C)C[C@H](O)[C@H](O)[C@H](CC1CCCCC1)NC(=O)[C@H](Cc1c[nH]cn1)NC(=O)[C@H](Cc1ccccc1)NC(=O)COCC(=O)O` [Example 186, Carboxymethoxymethylcarbonyl-Phe-His Amide of 2(S)-Amino-1-cyclohexyl-3(R),4(S)-dihydroxy-6-methylheptane]: the pIC50 was 8.70.
The same measure, in the same setting: the result for `COC(=O)C(CCCCC(=O)N[C@@H](Cc1ccc(OC)cc1)C(=O)N[C@@H](CC(C)C)C(=O)N[C@@H](CC1CCCCC1)[C@@H](O)[C@@H](O)CC(C)C)NC(=O)OCc1ccccc1` (stereo partly drawn) [Example 192, 6-(BenzYloxYcarbonyl)amino-6-(methoxycarbonyl)hexanoyl-(4-OMe)Phe-Leu Amide of 2(S)-Amino-l-cyclohexyl-3(R),4(S)-dihydroxy-6-methylheptane] reads 9.21; that for `COC(=O)C(N)CCCCC(=O)N[C@@H](Cc1ccc(OC)cc1)C(=O)N[C@@H](CC(C)C)C(=O)N[C@@H](CC1CCCCC1)[C@@H](O)[C@@H](O)CC(C)C` (stereo partly drawn) [Example 193, 6-Amino-6-(methoxycarbonyl)hexanoyl-(4-OMe)Phe-Leu Amide of 2(S)-Amino-l-cyclohexyl-3(R),4(S)-dihydroxy-6-methylheptane], 9.13.

The same assay, now with this note: human renal renin free from acid proteolytic activity, renin substrate human angiotensinogen, 37° C., pH 6.0.
In turn, `CC(C)C[C@H](O)[C@H](O)[C@H](CC1CCCCC1)NC(=O)[C@H](Cc1c[nH]cn1)NC(=O)[C@H](Cc1ccccc1)NC(=O)N1CCNCC1` [Example 124, [(1-Piperazinyl)carbonyl]-Phe-His Amide of 2(S)-Amino-1-cyclohexyl-3(R),4(S)-dihydroxy-6-methylheptane Bis-Acetic Acid Salt] had a pIC50 of 9.19.
